# In US5134137A, “Cephalosporin antibiotics” (The Upjohn Company, priority 1990, dated 1992):
# Assays:
# Salmonella typhimurium = experiment: Systemic infection model in mice, ED50, Salmonella typhimurium; assay type: in vivo; settings: Salmonella enterica, TYPHIMURIUM / UC6164, sc, 144 h, strain UC6164, lactamase producing, subcutaneous, 0, 24, 48 hours post infection, 50% survival six days post infection, per day, read-out: ED50 (95% confidence limits)
# Description: (§1) Experimental Infections and Antitiotic Treatment (for ED50 in mice tests).
# (§2) Mice are infected and treated with the test antibiotic compound according to procedures described previously [Yancey, Jr., R. J. et at. supra].
# (§3) The test antibiotic compound is administered subcutaneously immediately following infection, then at 24 hours and 48 hours post infection. The medium effective dose (ED50) number is determined for all infections. The ED50 value is defined as the calculated concentration of the test antibiotic compound in mg. of compound per kilogram of mouse body weight per day at which 50% of the animals survived six days post infection.
# P. hemolytica = experiment: Systemic infection model in mice, ED50, P. hemolytica; assay type: in vivo; settings: Mus musculus, sc, 144 h, strain UC6532, lactamase producing, subcutaneous, 0, 24, 48 hours post infection, 50% survival six days post infection, per day, read-out: ED50 (95% confidence limits)
# Description: as §1, §2, §3
compound,measurement,setting,value
CC1(C)S[C@@H]2[C@H](NC(=O)[C@H](N)c3ccccc3)C(=O)N2[C@H]1C(=O)O [ampicillin],ED50,Salmonella typhimurium,> 100 mg/kg
same,ED50,P. hemolytica,> 100 mg/kg
